Laboratory results: patent US12398154B2, “Azaquinazoline pan-KRas inhibitors” (Mirati Therapeutics, Inc., priority 2020, dated 2025)

Tests used:
[1] = target: KRas G12C (Homo sapiens, UniProt P01116, G12C); experiment: biochemical;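 further: binding to KRas assessed by TR-FRET displacement after one hour incubation at room temperature, potency fitted from percent-of-control values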
Description: (§1) The ability of a compound to bind to KRas was measured using a TR-FRET displacement assay. […] After a 60-minute incubation at room temperature, the reaction was measured using a BMG LABTECH CLARIO star Plus via TR-FRET. […] The POC values were fit to a 4-parameter IC50 equation and the IC50 value reported.

[2] = target: KRas G12S (Homo sapiens, UniProt P01116, G12S); experiment: biochemical;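 further: TR-FRET displacement binding to KRas, read after one hour incubation at room temperature, IC50 from four-parameter fit of percent of control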
Chain of KRas G12S (P01116 1-169 isoform P01116-2 G12S): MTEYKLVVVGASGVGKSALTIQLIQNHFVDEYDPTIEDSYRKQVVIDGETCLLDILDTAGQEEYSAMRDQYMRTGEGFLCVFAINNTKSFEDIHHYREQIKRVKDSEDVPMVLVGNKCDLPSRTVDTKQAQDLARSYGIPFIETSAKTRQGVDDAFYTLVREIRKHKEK
Description: as §1

[3] = target: KRas G12A (Homo sapiens, UniProt P01116, G12A); experiment: biochemical;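 further: binding to KRas measured by TR-FRET displacement after one hour at room temperature, IC50 from a four-parameter fit of percent-of-control values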
Chain of KRas G12A (P01116 1-169 isoform P01116-2 G12A): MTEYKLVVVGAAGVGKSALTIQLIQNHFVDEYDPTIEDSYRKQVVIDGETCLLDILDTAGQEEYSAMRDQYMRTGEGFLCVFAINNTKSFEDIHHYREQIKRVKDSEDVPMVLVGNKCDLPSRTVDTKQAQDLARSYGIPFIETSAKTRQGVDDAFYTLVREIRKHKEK
Description: as §1

[4] = target: KRas G12D (Homo sapiens, UniProt P01116, G12D); experiment: biochemical;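 further: TR-FRET displacement binding assay on KRas, read after a one-hour incubation at room temperature, IC50 fitted from percent-of-control values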
Chain of KRas G12D (P01116 1-169 isoform P01116-2 G12D): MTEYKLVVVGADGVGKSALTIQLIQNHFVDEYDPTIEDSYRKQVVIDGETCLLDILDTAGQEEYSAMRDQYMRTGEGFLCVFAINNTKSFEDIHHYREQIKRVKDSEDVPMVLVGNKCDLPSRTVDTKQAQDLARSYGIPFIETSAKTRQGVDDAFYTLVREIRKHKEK
Description: as §1

[5] = target: T1, KRas G13D (Homo sapiens, UniProt P01116, G13D); experiment: KRas binding assay (TR-FRET displacement);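 further: One-hour room temperature incubation before TR-FRET reading, IC50 from a four-parameter curve fit to percent-of-control data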
T1 construct: Biotinylated KRas (corresponding to amino acids 1-169, produced at Accelegan Inc.); biotin (biotinylated); purchased Accelegan Inc
T1 sequence (P01116 1-169 isoform P01116-2 G13D): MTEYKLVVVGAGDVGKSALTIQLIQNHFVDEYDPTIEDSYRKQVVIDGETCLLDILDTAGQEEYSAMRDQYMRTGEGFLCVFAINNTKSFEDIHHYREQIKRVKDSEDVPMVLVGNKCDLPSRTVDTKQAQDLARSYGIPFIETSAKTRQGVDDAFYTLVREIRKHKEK
Description: as §1

[6] = target: T2, KRas Q61H (Homo sapiens, UniProt P01116, Q61H); experiment: KRas binding assay (TR-FRET displacement);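 further: TR-FRET signal read after one hour at room temperature, IC50 derived by four-parameter fitting of percent-of-control values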
T2 construct: Biotinylated KRas (corresponding to amino acids 1-169, produced at Accelegan Inc.); biotin (biotinylated); purchased Accelegan Inc
T2 sequence (P01116 1-169 isoform P01116-2 Q61H): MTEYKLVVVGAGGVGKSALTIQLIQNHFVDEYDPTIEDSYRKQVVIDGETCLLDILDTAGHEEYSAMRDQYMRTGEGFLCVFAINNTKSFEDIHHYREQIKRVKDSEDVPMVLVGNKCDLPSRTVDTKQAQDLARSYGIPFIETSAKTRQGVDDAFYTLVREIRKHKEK
Description: as §1

[7] = target: KRas WT (Homo sapiens, UniProt P01116); experiment: biochemical;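 further: binding to KRas read as TR-FRET displacement after a one-hour room-temperature incubation, IC50 derived from percent-of-control values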
Chain of KRas WT (P01116 1-169 isoform P01116-2): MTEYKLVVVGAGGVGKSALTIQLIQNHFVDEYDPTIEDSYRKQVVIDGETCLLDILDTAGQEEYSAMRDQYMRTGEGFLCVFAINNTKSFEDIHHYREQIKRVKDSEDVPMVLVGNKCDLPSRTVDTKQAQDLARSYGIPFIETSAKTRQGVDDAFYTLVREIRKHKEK
Description: as §1

[8] = target: KRas G12V (Homo sapiens, UniProt P01116, G12V); experiment: biochemical;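 further: KRas binding measured by TR-FRET displacement at room temperature, IC50 fitted from percent of control values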
Chain of KRas G12V (P01116 1-169 isoform P01116-2 G12V): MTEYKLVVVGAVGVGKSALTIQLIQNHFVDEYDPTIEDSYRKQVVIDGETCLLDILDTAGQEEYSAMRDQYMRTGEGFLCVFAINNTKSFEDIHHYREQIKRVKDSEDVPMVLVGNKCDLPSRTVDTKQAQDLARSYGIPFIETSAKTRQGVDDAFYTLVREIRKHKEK
Description: as §1

[9] = target: KRas G12R (Homo sapiens, UniProt P01116, G12R); experiment: biochemical;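 further: TR-FRET displacement assay of compound binding to KRas, read after one hour at room temperature, potency from a four-parameter fit of percent-of-control values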
Chain of KRas G12R (P01116 1-169 isoform P01116-2 G12R): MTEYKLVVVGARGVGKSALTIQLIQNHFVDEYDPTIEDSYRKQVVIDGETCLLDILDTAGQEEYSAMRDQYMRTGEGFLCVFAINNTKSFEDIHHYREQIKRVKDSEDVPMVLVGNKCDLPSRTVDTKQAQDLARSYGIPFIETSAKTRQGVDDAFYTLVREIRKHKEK
Description: as §1

Chain of KRas G12C (P01116 1-169 isoform P01116-2 G12C): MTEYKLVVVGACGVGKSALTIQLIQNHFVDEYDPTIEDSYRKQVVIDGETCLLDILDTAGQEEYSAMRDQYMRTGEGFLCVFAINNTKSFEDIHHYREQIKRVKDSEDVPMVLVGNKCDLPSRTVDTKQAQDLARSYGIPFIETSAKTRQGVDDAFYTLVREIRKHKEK

IC50 [1] [nM] | IC50 [2] [nM] | IC50 [3] [nM] | IC50 [4] [nM] | IC50 [5] [nM] | IC50 [6] [nM] | IC50 [7] [µM] | IC50 [8] [nM] | IC50 [9] [nM] | Structure (SMILES)
597 | 492 | 586 | 1140 | 350 | 498 | 0.478 | 1550 | 777 | NS(=O)(=O)NC1CCCN(c2nc(OCC34CCCN3CCC4)nc3c(F)c(-c4cccc5cccc(F)c45)ncc23)C1 (stereo not drawn) [Example 240, 8-fluoro-7-(8-fluoronaphthalen-1-yl)-2-(1,2,3,5,6,7-hexahydropyrrolizin-8-ylmethoxy)-4-[3-(sulfamoylamino)piperidin-1-yl]pyrido[4,3-d]pyrimidine]
6960 | 6230 | 8190 | 8030 | 7860 | 13600 | 11 | 7630 | 13000 | O=CNC1CCCN(c2nc(OCC34CCCN3CCC4)nc3c(F)c(-c4cccc5cccc(F)c45)ncc23)C1 (stereo not drawn) [Example 242, N-(1-(8-fluoro-7-(8-fluoronaphthalen-1-yl)-2-((hexahydro-1H-pyrrolizin-7a-yl)methoxy)pyrido[4,3-d]pyrimidin-4-yl)piperidin-3-yl)formamide]
1150 | 1810 | 1050 | 25400 | 2960 | 3580 | 3.32 | 2190 | 1060 | NC(=O)NC1CCN(c2nc(OCC34CCCN3CCC4)nc3c(F)c(-c4cccc5cccc(F)c45)ncc23)CC1 [Example 243, 1-(1-(8-fluoro-7-(8-fluoronaphthalen-1-yl)-2-((hexahydro-1H-pyrrolizin-7a-yl)methoxy)pyrido[4,3-d]pyrimidin-4-yl)piperidin-4-yl)urea]
2820 | 3060 | 1850 | 18200 | 4860 | 5080 | 5.14 | 3570 | 3100 | O=CNC1CCN(c2nc(OCC34CCCN3CCC4)nc3c(F)c(-c4cccc5cccc(F)c45)ncc23)CC1 [Example 244, N-(1-(8-fluoro-7-(8-fluoronaphthalen-1-yl)-2-((hexahydro-1H-pyrrolizin-7a-yl)methoxy)pyrido[4,3-d]pyrimidin-4-yl)piperidin-4-yl)formamide]
2680 | 2150 | 2110 | 429 | 1180 | 2060 | 1.59 | 1830 | 2560 | O=S1(=O)NCCC2(CCCN(c3nc(OCC45CCCN4CCC5)nc4c(F)c(-c5cccc6cccc(F)c56)ncc34)C2)N1 (stereo not drawn) [Example 247, 8-(8-fluoro-7-(8-fluoronaphthalen-1-yl)-2-((hexahydro-1H-pyrrolizin-7a-yl)methoxy)pyrido[4,3-d]pyrimidin-4-yl)-2-thia-1,3,8-triazaspiro[5.5]undecane 2,2-dioxide]
979 | 742 | 981 | 7860 | 1280 | 808 | 1.06 | 1290 | 424 | NS(=O)(=O)CC1CN(c2nc(OCC34CCCN3CCC4)nc3c(F)c(-c4cccc5cccc(F)c45)ncc23)CCO1 (stereo not drawn) [Example 249, 1-(4-(8-fluoro-7-(8-fluoronaphthalen-1-yl)-2-((tetrahydro-1H-pyrrolizin-7a(5H)-yl)methoxy)pyrido[4,3-d]pyrimidin-4-yl)morpholin-2-yl)methanesulfonamide]
6840 | 3800 | 3930 | 7310 | 3510 | 5310 | 3.58 | 3410 | 3990 | CS(=O)(=O)C1CCCCN(c2nc(OCC34CCCN3CCC4)nc3c(F)c(-c4cccc5cccc(F)c45)ncc23)C1 (stereo not drawn) [Example 250, 8-fluoro-7-(8-fluoronaphthalen-1-yl)-2-((hexahydro-1H-pyrrolizin-7a-yl)methoxy)-4-(3-(methylsulfonyl)azepan-1-yl)pyrido[4,3-d]pyrimidine]
6400 | 5750 | 6120 | 6830 | 3780 | 6250 | 3.84 | 3870 | 14600 | CS(=O)(=O)C1CCCCCN(c2nc(OCC34CCCN3CCC4)nc3c(F)c(-c4cccc5cccc(F)c45)ncc23)C1 (stereo not drawn) [Example 251, 8-fluoro-7-(8-fluoronaphthalen-1-yl)-2-((hexahydro-1H-pyrrolizin-7a-yl)methoxy)-4-(3-(methylsulfonyl)azocan-1-yl)pyrido[4,3-d]pyrimidine]
17 | 8 | 5 | 11 | 6 | 9 | 0.007 | 17 | 27 | O=S1(=O)NCC2(CCCN(c3nc(OCC45CCCN4CCC5)nc4c(F)c(-c5cccc6cccc(F)c56)ncc34)C2)N1 (stereo not drawn) [Example 252, 7-(8-fluoro-7-(8-fluoronaphthalen-1-yl)-2-((tetrahydro-1H-pyrrolizin-7a(5H)-yl)methoxy)pyrido[4,3-d]pyrimidin-4-yl)-2-thia-1,3,7-triazaspiro[4.5]decane 2,2-dioxide]
2410 | 3590 | 3030 | 67300 | 14100 | 7720 | 6 | 4350 | 4080 | Fc1c(-c2cccc3cccc(F)c23)ncc2c(N3CC(n4cncn4)C3)nc(OCC34CCCN3CCC4)nc12 [Example 253, 4-(3-(1H-1,2,4-triazol-1-yl)azetidin-1-yl)-8-fluoro-7-(8-fluoronaphthalen-1-yl)-2-((hexahydro-1H-pyrrolizin-7a-yl)methoxy)pyrido[4,3-d]pyrimidine]
4050 | 5310 | 4630 | 2420 | 3800 | 6020 | 4.03 | 4540 | 8140 | CN(C)CC1(COc2nc(N3CCCC(C)(O)C3)c3cnc(-c4cccc5cccc(F)c45)c(F)c3n2)CC1 (stereo not drawn) [Example 256, 1-(2-((1-((dimethylamino)methyl)cyclopropyl)methoxy)-8-fluoro-7-(8-fluoronaphthalen-1-yl)pyrido[4,3-d]pyrimidin-4-yl)-3-methylpiperidin-3-ol]
4000 | 5220 | 5490 | 2430 | 3960 | 6030 | 4.03 | 3790 | 6910 | CC1(O)CCCN(c2nc(OCC3(CN4CCCC4)CC3)nc3c(F)c(-c4cccc5cccc(F)c45)ncc23)C1 (stereo not drawn) [Example 257, 1-(8-fluoro-7-(8-fluoronaphthalen-1-yl)-2-((1-(pyrrolidin-1-ylmethyl)cyclopropyl)methoxy)pyrido[4,3-d]pyrimidin-4-yl)-3-methylpiperidin-3-ol]
1380 | 1010 | 2070 | 320 | 4380 | 4610 | 3.25 | 858 | 1180 | NC(=O)c1cc2n(n1)CCCN(c1nc(OCC34CCCN3CCC4)nc3c(F)c(-c4cccc5cccc(F)c45)ncc13)C2 [Example 258, 5-(8-fluoro-7-(8-fluoronaphthalen-1-yl)-2-((hexahydro-1H-pyrrolizin-7a-yl)methoxy)pyrido[4,3-d]pyrimidin-4-yl)-5,6,7,8-tetrahydro-4H-pyrazolo[1,5-a][1,4]diazepine-2-carboxamide]
825 | 649 | 1520 | 158 | 3300 | 3180 | 2.21 | 380 | 769 | CNC(=O)c1cc2n(n1)CCCN(c1nc(OCC34CCCN3CCC4)nc3c(F)c(-c4cccc5cccc(F)c45)ncc13)C2 [Example 259, 5-(8-fluoro-7-(8-fluoronaphthalen-1-yl)-2-((hexahydro-1H-pyrrolizin-7a-yl)methoxy)pyrido[4,3-d]pyrimidin-4-yl)-N-methyl-5,6,7,8-tetrahydro-4H-pyrazolo[1,5-a][1,4]diazepine-2-carboxamide]
591 | 419 | 294 | 61 | 1170 | 1060 | 0.864 | 204 | 455 | CN(C)C(=O)c1cc2n(n1)CCCN(c1nc(OCC34CCCN3CCC4)nc3c(F)c(-c4cccc5cccc(F)c45)ncc13)C2 [Example 260, 5-(8-fluoro-7-(8-fluoronaphthalen-1-yl)-2-((hexahydro-1H-pyrrolizin-7a-yl)methoxy)pyrido[4,3-d]pyrimidin-4-yl)-N,N-dimethyl-5,6,7,8-tetrahydro-4H-pyrazolo[1,5-a][1,4]diazepine-2-carboxamide]
